Test systems include 786-0 renal; ACHN renal; HOP-62 NSCLC; LOX IMVI melanoma; NCI/ADR-RES ovarian; RPMI-8226 leukemia; SF-268 CNS; SF-295 CNS; SK-MEL-28 melanoma; TK-10 renal.
Common to all, as to experiment: NCI tumour cell line growth inhibition, 48 h

Structures are written as SMILES.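 Step 1: Grow cells in 96-well plates. Step 2: Expose to compound for 48 hours at 5 concentrations. Step 3: Interpolate endpoints linearly; if unreached, use highest concentration. The concentration for 50% growth inhibition is given as GI50. Definition used: TGI = concentration required for complete inhibition of growth.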

Take `NC(N)=NNC(=O)C(=O)O`: the TGI with 786-0 renal, in the experiment on ACHN renal, in the experiment on HOP-62 NSCLC, in the experiment with LOX IMVI melanoma, with NCI/ADR-RES ovarian and in the experiment with RPMI-8226 leukemia was more than 100 µM each time. Further, the TGI in the experiment on SF-268 CNS, in the experiment with SF-295 CNS, in the experiment with SK-MEL-28 melanoma and in the experiment with TK-10 renal was more than 100 µM in each case.

Regarding `Cn1c2ccccc2n2c3nc4ccccc4nc3c(C#N)c12`, the TGI in the experiment with 786-0 renal, in the experiment on ACHN renal, in the experiment on HOP-62 NSCLC, in the experiment with LOX IMVI melanoma, in the experiment with NCI/ADR-RES ovarian and with RPMI-8226 leukemia was more than 100 µM each time. Besides, the TGI in the experiment with SF-268 CNS, in the experiment on SF-295 CNS, with SK-MEL-28 melanoma and in the experiment on TK-10 renal was more than 100 µM each time.

Turning to `O=[N+]([O-])/C=C\c1ccc2c(c1)OCO2`, the GI50 in the experiment on 786-0 renal is 1.84 µM; with ACHN renal it was 4.21 µM; in the experiment on HOP-62 NSCLC it was 13.3 µM; in the experiment with LOX IMVI melanoma it was 1.83 µM; in the experiment on NCI/ADR-RES ovarian, 10.3 µM; in the experiment with RPMI-8226 leukemia, 1.77 µM. In addition, the GI50 in the experiment with SF-268 CNS was 10.5 µM; with SF-295 CNS, 11.5 µM; in the experiment on SK-MEL-28 melanoma, 4.7 µM; in the experiment on TK-10 renal it was 3.16 µM. Besides, the TGI in the experiment on 786-0 renal is 3.52 µM; in the experiment on ACHN renal it was 16.2 µM; with HOP-62 NSCLC, 27 µM; in the experiment with LOX IMVI melanoma, 4.15 µM; with NCI/ADR-RES ovarian it was 29.3 µM; with RPMI-8226 leukemia, 5.07 µM. The TGI with SF-268 CNS was 22.4 µM; in the experiment on SF-295 CNS, 26.5 µM; in the experiment on SK-MEL-28 melanoma it was 16.4 µM; in the experiment with TK-10 renal it was 10 µM.

For the molecule `O=S(=O)(O)c1ccc2cc(N=Nc3cc(S(=O)(=O)O)c4cccnc4c3O)ccc2c1`, the TGI with 786-0 renal, with ACHN renal, with HOP-62 NSCLC, in the experiment with LOX IMVI melanoma, with NCI/ADR-RES ovarian and in the experiment on RPMI-8226 leukemia was more than 100 µM in each case. For the same molecule, the TGI with SF-268 CNS, with SF-295 CNS, in the experiment on SK-MEL-28 melanoma and in the experiment with TK-10 renal was more than 100 µM throughout.

With `O=C(O)C(Cc1ccc(O)c([N+](=O)[O-])c1)N1C(=O)c2ccccc2C1=O` (stereo not given), the TGI with 786-0 renal, in the experiment on ACHN renal, with HOP-62 NSCLC, in the experiment with LOX IMVI melanoma, with NCI/ADR-RES ovarian and in the experiment with RPMI-8226 leukemia was more than 100 µM throughout. The TGI in the experiment on SF-268 CNS, in the experiment with SF-295 CNS, in the experiment on SK-MEL-28 melanoma and in the experiment with TK-10 renal was more than 100 µM throughout.

As for `O=C(N/N=C/c1ccc(F)cc1)c1[nH]c2ccc(I)cc2c1-c1ccccc1`, the GI50 in the experiment with 786-0 renal was 0.475 µM; in the experiment on ACHN renal, 0.719 µM; in the experiment on HOP-62 NSCLC, 0.577 µM; in the experiment with LOX IMVI melanoma, 0.767 µM; with NCI/ADR-RES ovarian, 0.274 µM; in the experiment on RPMI-8226 leukemia, 0.191 µM. Further, the GI50 was 0.772 µM with SF-268 CNS, 0.27 µM in the experiment on SF-295 CNS, 0.494 µM in the experiment on SK-MEL-28 melanoma and 19.7 µM with TK-10 renal. Further, the TGI in the experiment on 786-0 renal is 10.7 µM; in the experiment on ACHN renal it was more than 100 µM; with HOP-62 NSCLC, 13.6 µM; with LOX IMVI melanoma, more than 100 µM; in the experiment on NCI/ADR-RES ovarian, 0.769 µM; in the experiment on RPMI-8226 leukemia, 0.639 µM. For the same molecule, the TGI with SF-268 CNS was more than 80.7 µM; in the experiment with SF-295 CNS, 1.5 µM; in the experiment on SK-MEL-28 melanoma it was 55.4 µM; in the experiment on TK-10 renal, more than 100 µM.

For `N#C/C(=C(\O)C(=O)O)c1ccc(-c2cccc3ccccc23)cc1`, the TGI in the experiment on 786-0 renal, in the experiment on ACHN renal, in the experiment with HOP-62 NSCLC, with LOX IMVI melanoma, in the experiment on NCI/ADR-RES ovarian and in the experiment on RPMI-8226 leukemia was more than 100 µM throughout. For the same molecule, the TGI in the experiment on SF-268 CNS, with SF-295 CNS, in the experiment with SK-MEL-28 melanoma and in the experiment on TK-10 renal was more than 100 µM each time.

For `Cc1cc(O)cc(C)c1/C=C/c1cncc(C(=O)N(C)C)c1`, the GI50 in the experiment on 786-0 renal, in the experiment with ACHN renal, in the experiment on HOP-62 NSCLC, with LOX IMVI melanoma, in the experiment with NCI/ADR-RES ovarian and in the experiment with RPMI-8226 leukemia was more than 25 µM in each case. The GI50 was more than 25 µM with SF-268 CNS, more than 14.8 µM in the experiment with SF-295 CNS, more than 25 µM with SK-MEL-28 melanoma and more than 25 µM in the experiment on TK-10 renal. Further, the TGI in the experiment with 786-0 renal, with ACHN renal, in the experiment with HOP-62 NSCLC, in the experiment with LOX IMVI melanoma, in the experiment on NCI/ADR-RES ovarian and in the experiment on RPMI-8226 leukemia was more than 25 µM each time. Besides, the TGI with SF-268 CNS, in the experiment on SF-295 CNS, with SK-MEL-28 melanoma and in the experiment with TK-10 renal was more than 25 µM each time.

In the case of `O=C1NC(=O)C(c2ccccc2Cl)=C1Nc1cccc(O)c1`, the GI50 with 786-0 renal was 13.8 µM; in the experiment on ACHN renal, more than 25 µM; with HOP-62 NSCLC it was 3.89 µM; with LOX IMVI melanoma, 15.1 µM; in the experiment on NCI/ADR-RES ovarian, 3.2 µM; with RPMI-8226 leukemia, 21.4 µM. Besides, the GI50 in the experiment on SF-268 CNS is 12.5 µM; in the experiment with SF-295 CNS, 8.32 µM; in the experiment on SK-MEL-28 melanoma, more than 25 µM; in the experiment on TK-10 renal, 10.7 µM. Also, the TGI with 786-0 renal, in the experiment on ACHN renal, with HOP-62 NSCLC, in the experiment on LOX IMVI melanoma, with NCI/ADR-RES ovarian and in the experiment on RPMI-8226 leukemia was more than 25 µM throughout. Moreover, the TGI in the experiment with SF-268 CNS, in the experiment on SF-295 CNS, with SK-MEL-28 melanoma and in the experiment on TK-10 renal was more than 25 µM throughout.

For `CCCCc1cc(O)ccc1O`, the GI50 in the experiment on 786-0 renal is 12.2 µM; in the experiment with ACHN renal it was 15.6 µM; with HOP-62 NSCLC, 53.7 µM; with LOX IMVI melanoma, 14.6 µM; in the experiment on NCI/ADR-RES ovarian, 23.2 µM; in the experiment on RPMI-8226 leukemia it was 3.13 µM. The GI50 in the experiment with SF-268 CNS was 15.5 µM; with SF-295 CNS it was 42.7 µM; in the experiment with SK-MEL-28 melanoma it was 78.7 µM; with TK-10 renal, 17.9 µM. The TGI in the experiment on 786-0 renal was more than 100 µM; in the experiment on ACHN renal, 28.9 µM; in the experiment on HOP-62 NSCLC, more than 100 µM; in the experiment on LOX IMVI melanoma it was 63.6 µM; with NCI/ADR-RES ovarian, more than 100 µM; with RPMI-8226 leukemia it was 26.6 µM. Besides, the TGI in the experiment on SF-268 CNS is more than 100 µM; in the experiment with SF-295 CNS it was more than 100 µM; in the experiment on SK-MEL-28 melanoma it was more than 100 µM; with TK-10 renal, 42.8 µM.

(Values after PubChem BioAssay (NCI).)
